Source: patent US10695562B2, “Interventional drug delivery system and associated methods” (The University of North Carolina at Chapel Hill, priority 2009, dated 2020)

What was measured:
[1] = Gemcitabine transport in orthotopic xenograft tumors, transport testing system, HPLC; format: in vitro ADME; conditions: constant current 20 mA, 20 minutes, tumors 1.25 to 1.5 cm
Protocol: To assess and optimize the electrical transport parameters in tissue, a transport testing system was built (see FIG. 32A). The transport of gemcitabine, the current standard-of-care therapy for pancreatic cancer, was evaluated in orthotopic xenograft tumors using this transport testing system (see FIG. 32B). The tumors chosen for the studies were 1.25 to 1.5 cm in diameter because of compatibility with the size of the transport cell. The gemcitabine was used according to the current clinical formulation (Gemzar® to Eli Lilly and Company), at a concentration relevant to that administered in the clinic. For three tumors, a constant current of 20 mA was applied for 20 minutes, and the amount of gemcitabine was evaluated using a high-performance liquid chromatography (HPLC) analysis method. For three additional tumors, no current was applied, which allowed for passive diffusion of the gemcitabine into the tumor, and the amount of gemcitabine was evaluated using the same HPLC analysis method.

[2] = Plasma concentrations of gemcitabine, implantable device on canine pancreas, UV-HPLC; format: in vivo; set-up: key to Gem Concentration (plasma): *: Below limit of detection
Protocol: The reservoir based system similar to that shown in FIGS. 33A-D was surgically implanted onto the pancreas of a canine. All animal models were anesthetized and attached to a respirator for the entirety of the study. The implantable device approach was assessed via a laparotomy. The pancreas was assessed for ease of access.
There were three arms for the large animal experiment: 1. Device with current; 2. Device without current; and 3. IV Infusion (see Table 2). The device was sutured onto the right lobe of the canine pancreas. Gemcitabine formulated at clinically relevant concentrations was pumped into and out of the device at ˜1.5 mL/min during the application of 10 mA of current applied for 60 minutes. Control experiments were run without current. After administration of therapy, the pancreas was excised and snap frozen for analysis. The gemcitabine was measured from the section tissue using UV-HPLC from established protocols in the literature (see Olive, K P, et al. Science 324 (2009) 1457-1461 and Kirstein M N, et al., J Chromatogr B Analyt Technol Biomed Life Sci. 835 (2006) 136-142). Shown in FIG. 34 are the results obtained from the three experimental arms analyzing the mass of gemcitabine from the entire pancreas.
In FIG. 35, the transport distance of the gemcitabine is shown for the with and without current arms. […] Plasma concentrations of gemcitabine were detected at 15-minute increments prior to and during the large animal study. The tissue was sectioned using a cryostat microtome and gemcitabine was extracted using an established extraction method (see Olive et al.). The gemcitabine was detected and quantified using UV-HPLC (see Olive et al. and Kirstein et al.).

- increase in the amount of gemcitabine within tumor compared to the control (no current applied) [1]: eight-fold increase
- Gem Concentration (plasma) ([2]; Device - Current Applied (10 mA), sample 0 min): *
- Gem Concentration (plasma) ([2]; Device - Current Applied (10 mA), sample 15 min): *
- Gem Concentration (plasma) ([2]; Device - Current Applied (10 mA), sample 30 min): *
- Gem Concentration (plasma) ([2]; Device - Current Applied (10 mA), sample 45 min): *
- Gem Concentration (plasma) ([2]; Device - Current Applied (10 mA), sample 60 min): *
- Gem Concentration (plasma) ([2]; Device - Current Applied (10 mA), sample −15 min): *
- Gem Concentration (plasma) ([2]; Device - No Current, sample 0 min): *
- Gem Concentration (plasma) ([2]; Device - No Current, sample 15 min): *
- Gem Concentration (plasma) ([2]; Device - No Current, sample 30 min): *
- Gem Concentration (plasma) ([2]; Device - No Current, sample 45 min): *
- Gem Concentration (plasma) ([2]; Device - No Current, sample 60 min): *
- Gem Concentration (plasma) ([2]; Device - No Current, sample −15 min): *
- gemcitabine levels detected in the plasma of the dogs ([2]; with and without current arms, device on pancreas): below the detectable limit
SMILES: Nc1ccn([C@@H]2O[C@H](CO)[C@@H](O)C2(F)F)c(=O)n1 [Gemcitabine, gemcitabine]
